Series [1] deals with P-I type metalloproteinase Batx-I (Bothrops atrox, UniProt P0DJE1). In words: biochemical.
Another series concerns PLA2 from snake venoms. As to conditions: same methodology as this paper; read-out: IC50 (PLA2 inhibition); cited from earlier work.

P-I type metalloproteinase Batx-I, sequence (P0DJE1 whole entry, looked up): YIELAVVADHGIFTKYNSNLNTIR

In turn, `CCOC(=O)CSC(=O)c1ccc(Cl)cc1` [Compound I, Ethyl 2-((4-chlorobenzoyl)thio)acetate] displayed a melting point of 55.6 °C. The activity at 2000 µM in series [1] (read-out: Batx-I proteolytic activity still observed) was 70%.
Take `CCOC(=O)CSC(=O)c1cccc([N+](=O)[O-])c1` [II, Ethyl 2-((3-nitrobenzoyl)thio)acetate]: the melting point came to 44.5 °C. The molecule further registered an IC50 in series [1] of 2770 µM.
The molecule `CCOC(=O)CSC(=O)c1ccc([N+](=O)[O-])cc1` [III, Ethyl 2-((4-nitrobenzoyl)thio)acetate] showed a melting point of 56.2 °C. In addition, the concentration for half-maximal inhibition (IC50) in series [1] was 1880 µM.
Take `O=C1c2c(O)cc(O)cc2O[C@H](c2ccc(O)cc2)[C@H]1c1c(O)cc(O)c2c(=O)cc(-c3ccc(O)c(O)c3)oc12` [Morelloflavone]: the IC50 with PLA2 from snake venoms is 380 µM.
Turning to `COc1cc(O)c2c(c1)O[C@H](c1ccccc1)CC2=O` [Pinostrobin], the IC50 in the series on PLA2 from snake venoms is 1850 µM.

Broadly, the melting point is the temperature of the solid-liquid transition. In general, IC50 refers to the concentration that gives 50% inhibition.

The values are drawn from paper PMC6630910 (Pharmaceuticals, 2019).
